Test results: paper PMC5645319, “An Integrin-Targeted, Highly Diffusive Construct for Photodynamic Therapy” (Scientific Reports, 2017)

Assays:
[1] = Absorption spectroscopy to assess photosensitizer aggregation in water; type: physicochemical; settings: for Aggregation in water by absorption spectrum: construct at 87.8 µM, compared with EtNBS in acidified methanol
Text: Spectra were acquired using a home-built spectrometer that made use of a white light source for absorption measurements and a 655 nm LED for EtNBS excitation. Transmitted or absorbed light was collected and fiber-delivered to a QE65000 spectrometer (Ocean Optics) for spectral acquisition.

[2] = test system: OVCAR5 cells; experiment: Uptake in monolayer cell cultures, confocal fluorescence microscopy; type: cell-based
Procedure: (§1) All imaging experiments were carried out on an Olympus FV1000 confocal microscope with a stage-top incubator (Prior) to maintain humidity, 37 °C temperature, and 5% CO2 during imaging sessions. For each sample, imaging was restricted to 15 minutes from the time cells were removed from the incubator to avoid any artifacts related to cell death. Image acquisition parameters were chosen which captured signal from both samples/cell lines without any saturation of signal and were kept uniform between samples to allow for direct one-to-one comparison of signal. These parameters were also used to image cells treated with known concentrations of EtNBS, to allow for relative comparison of uptake against known references. For every imaging experiment and conditions, a minimum of three areas of interests were collected and analyzed.
(§2) Stably transfected OVCAR5 cells overexpressing the alpha5 integrin as well as wild-type OVCAR5 cells were plated as described above in glass-bottom 35 mm culture dishes (P35G-0.170-14-C, MatTek) at a density of 200,000 cells per dish 24 hours prior to the start of experiments. Cells were administered the photosensitizer at a concentration of 10 µM in warmed complete cell culture medium and incubated for 3 hours in a 37 °C incubator under 5% CO2. […]

[3] = test system: monolayer OVCAR5 cells; settings: 5 µM concentration, no light; 'has been observed', no reference given; cited from earlier work
Procedure: To assess the ability of the construct to carry out PDT, monolayer OVCAR5 cells were incubated with the EtNBS construct and illuminated with 660 nm light (Fig. 7). […] This is true even though the construct is more efficient in the generation of reactive radical species. This difference in light dose between the free molecule and its targeted construct, however, is not entirely surprising; similar higher light doses have been found necessary in immunoconjugates based on the benzoporphyrin der ...

[4] = test system: monolayer OVCAR5 cells; experiment: Photodynamic therapy and dark toxicity in monolayer cultures, MTT viability assay
Procedure: (§4) The MTT assay was used to evaluate cellular viability of PDT-treated monolayer cultures. […] The MTT reagent (Thiazolyl Blue Tetrazolium Bromide, Sigma) was administered to cells in warmed complete cell culture media at a concentration of 1 mg/mL. Growth medium was gently aspirated from wells so as not to remove weakly adhered cells and was replaced with MTT media solution (160 µL). Cells were then returned cells to the 37 °C incubator and kept under 5% CO2 for 60 minutes. After incubating cells, the MTT treatment solution was carefully and completely aspirated from wells, with DMSO then added (180 µL) to extract cellular Formazan. After incubating samples for 15 minutes at room temperature while periodically rocking plates to completely and uniformly dissolve Formazan crystals, Formazan-containing DMSO was aliquoted (50 µL volumes from each well in triplicate) into a 96-well plate alongside wells containing an equal volume of DMSO to be used for background subtraction. The absorbance of Formazan at 540 nm was then measured using a SpectraMax M5 (Molecular Devices) plate reader.
(§5) After averaging measured absorbance values, background-subtraction was carried out and the standard deviation of the experimental values was calculated. For each individual sample group or treatment condition, the background-subtracted average absorbance value was normalized to that of the untreated (“NT”) control group to obtain the normalized cellular viabilities. […] All measurements were performed in triplicate to ensure high quality data collection.
(§6) All steps involving the manipulation of photosensitizers were carried out under subdued lighting to the extent that it was possible to avoid artifacts from unintentional photodynamic effects. Wells within each dish were spaced far apart from each other to ensure minimal light administration cross-talk. All manipulations of media or other culture liquids were done manually, specifically avoiding the use of vacuum aspiration techniques to avoid the unintended removal of weakly adhered cells before, during or after therapy.
(§7) Sequential blocking of integrins with cRGD peptide was achieved by administering a 10-fold excess of cRGD peptide (50 µM) in warmed DPBS to cells and incubating for a duration of 3 hours at 37 °C in a 5% CO2 incubator. Blocking solution was removed and replaced with photosensitizer-containing treatment media without performing a washing step and cells were immediately returned to the incubator for the appropriate time.
(§8) Concentrated stock solutions of photosensitizers were diluted in and administered to cells in warmed complete cell culture media. […] Integrin-dependent PDT efficacy was evaluated using 10 µM photosensitizer doses. The comparison of PEG-dependent enhancement in PDT was evaluated using 5 µM photosensitizer doses. […]

[5] = Reactive oxygen species generation, singlet oxygen sensor green (SOSG) fluorogenic assay
Procedure: (§3) HPF (H36004) and SOSG (S36002) were purchased from Life Technologies and were used as directed by the manufacturer’s protocol. Working solutions were prepared at 10 µM in DPBS or 5 µM TRIS buffer (pH 7.5) for HPF and SOSG, respectively, using 10 µM concentrations of the appropriate photosensitizer. All sample irradiation was carried out using 660 nm-centered LED-generated light (M660L3, Thorlabs) at an irradiance of 100 mW/cm^2. Irradiation of 80 µL sample volumes was carried out in clear plastic 96-well plates, with the emission of the ROS probes measured with a plate reader (SpectraMax m5, Molecular Devices). Experiments were performed in triplicate and experimental values (N = 3) were averaged and background-subtraction was performed.

[6] = Reactive oxygen species generation, hydroxyphenyl fluorescein (HPF) fluorogenic assay; settings: 10 µM photosensitizer, 660 nm
Procedure: as §3

[7] = test system: OVCAR5 cell line engineered to ectopically overexpress the α5 integrin; experiment: Integrin-dependent uptake in monolayer culture, confocal fluorescence microscopy; type: cell-based
Procedure: as §1, §2

[8] = test system: monolayer OVCAR5 cells
Procedure: as §4, §5, §6, §7, §8

| Molecule | Aggregation in water by absorption spectrum (Supplementary Fig. 3) ([1]; 5 µM concentration) | Aggregation in water by absorption spectrum [1] | Photosensitizer uptake of free EtNBS relative to the construct ([2]; relative comparison) | Drop in viability due solely to dark toxicity [3] [%] | Toxicity of cRGD administered solely to cells ([4]; cRGD only, not exposed to light, MTT) | ROS generation measured by SOSG versus free EtNBS ([5]; 10 µM photosensitizer, 660 nm, 100 mW/cm^2, all light doses tested (5–40 J/cm^2), triplicate) | Yield of singlet oxygen (SOSG) relative to free EtNBS ([5]; equimolar 10 µM photosensitizer, 5 µM SOSG in TRIS buffer pH 7.5, 660 nm LED, 100 mW/cm^2, highest light dose (40 J/cm^2), mean of triplicate) [%] | Enhancement of HPF fluorescence versus free EtNBS ([6]; 10 µM HPF in DPBS, 100 mW/cm^2, dose of 50 J/cm^2, triplicate) | Photodynamic activity measured by HPF versus free EtNBS ([6]; 100 mW/cm^2, all light doses (5–100 J/cm^2), triplicate) | Uptake in alpha5 integrin overexpressing OVCAR5 versus OVCAR5 ([7]; 10 µM, 3 hours incubation, 37 °C, fluorescence excited at 635 nm, 670 nm emission) | Uptake of PEGylated versus unPEGylated construct in overexpressing cells ([7]; alpha5 integrin overexpressing OVCAR5 cells) | Photosensitizer concentration within the cells relative to administered free EtNBS ([2]; EtNBS references at 250 nM and 500 nM) | Toxicity without light, small scale experiments [8] | Reduction in viability after PDT ([4]; 5 µM photosensitizer, 3 hour incubation, 660 nm at 100 mW/cm^2, 100 J/cm^2 light dose, MTT 24 hours post-treatment, triplicate) [%] | PDT effect after pre-incubation with free cRGD ([4]; pre-treated with cRGD 50 µM (tenfold molar excess) 3 hours, then construct 5 µM, 100 J/cm^2 at 660 nm, MTT) |
| --- | --- | --- | --- | --- | --- | --- | --- | --- | --- | --- | --- | --- | --- | --- | --- |
| CCNc1cc2sc3cc(=[N+](CC)CC)ccc-3nc2c2ccccc12.[Cl-] [EtNBS] | displays a blue shift | formation of aggregates distorts the spectrum | up to two orders of magnitude greater uptake | 70 |  |  |  |  |  |  |  |  |  |  |  |
| N=C(N)NCCC[C@@H]1NC(=O)[C@H](CCCCN)NC(=O)[C@@H](Cc2ccccc2)NC(=O)[C@H](CC(=O)O)NC(=O)CNC1=O [cRGD, cRGDfK, reference compound] |  |  |  |  | did not result in any measured toxicity |  |  |  |  |  |  |  |  |  |  |
| DOTA-Lys(ETNBS)-Lys(PEG5K)-β-Ala-Cys(DBCO-PEG4-cRGD) (head to tail) [EtNBS construct] |  | does not show aggregation |  |  |  | greater than that of free EtNBS | ~100 | two-fold enhancement | considerably greater photodynamic activity | significantly greater | take up more | many times lower | equally harmless | 60 | protected the cells against PDT |
